Measurements from patent US6995187B1, “Peripheral cannabinoid receptor (CB2) selective ligands” (University of Connecticut, priority 1999, dated 2006).

Legend:
CB1 receptor = molecular target: T1, CB1 receptor (Rattus norvegicus, UniProt P20272); assay: CB1 receptor binding assay ([3H] CP-55,940 displacement, rat forebrain membranes); conditions: CB2 (mouse spleen) versus CB1 (rat forebrain) binding affinity
T1 construct: membranes were prepared from rat forebrain membranes; from tissue; host or cells: rat forebrain
T1 sequence (P20272 whole entry): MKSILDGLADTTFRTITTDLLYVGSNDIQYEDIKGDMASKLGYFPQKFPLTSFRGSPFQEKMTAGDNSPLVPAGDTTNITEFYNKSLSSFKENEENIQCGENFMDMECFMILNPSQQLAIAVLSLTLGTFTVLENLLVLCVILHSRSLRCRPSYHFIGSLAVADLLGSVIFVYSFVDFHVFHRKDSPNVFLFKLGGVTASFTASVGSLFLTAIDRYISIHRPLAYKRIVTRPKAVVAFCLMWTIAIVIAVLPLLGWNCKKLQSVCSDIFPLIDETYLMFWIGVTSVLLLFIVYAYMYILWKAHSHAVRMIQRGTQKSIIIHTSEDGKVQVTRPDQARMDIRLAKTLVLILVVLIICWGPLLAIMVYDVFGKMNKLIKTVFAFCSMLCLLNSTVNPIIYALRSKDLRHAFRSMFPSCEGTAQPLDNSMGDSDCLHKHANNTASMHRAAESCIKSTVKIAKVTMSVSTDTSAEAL
Description: (§1) As used herein, “binding affinity” is represented by the IC50 value which is the concentration of an analog required to occupy the 50% of the total number (Bmax) of the receptors. The lower the IC50 value, the higher the binding affinity. […] The binding affinities (Ki) are expressed in nanomoles (nM).
The above articles are incorporated by reference herein.
(§2) Membranes, previously frozen at −80° C., were thawed on ice. To the stirred suspension was added three volumes of TME (25 mM Tris-HCl buffer, 5 mM MgCl2 and 1 mM EDTA) at a pH 7.4. The suspension was incubated at 4° C. for 30 min. At the end of the incubation, the membranes were pelleted and washed three times with TME.
(§3) The treated membranes were subsequently used in the binding assay described below. Approximately 30 μg of membranes were incubated in silanized 96-well microtiter plate with TME containing 0.1% essentially fatty acid-free bovine serum albumin (BSA), 0.8 nM [^3H] […] Radioactivity was detected using MicroScint 20 scintillation cocktail added directly to the dried filterplates, and the filterplates were counted using a Packard Instruments Top-Count. Nonspecific binding was assessed using 100 nM CP-55,940. […] CP-55,940, determined using buffer and 100 nM CP-55,940. The normalized data was analyzed using a 4-parameter nonlinear logistic equation to yield IC50 values.

CB2 receptor = molecular target: T2, CB2 receptor (Mus musculus, UniProt P47936); assay: CB2 receptor binding assay ([3H] CP-55,940 displacement, mouse spleen membranes); conditions: 0.8 nM [3H] CP-55,940, read-out: CB2 affinity
T2 construct: membranes were prepared from frozen mouse spleen; from tissue; host or cells: mouse spleen
T2 sequence (P47936 whole entry): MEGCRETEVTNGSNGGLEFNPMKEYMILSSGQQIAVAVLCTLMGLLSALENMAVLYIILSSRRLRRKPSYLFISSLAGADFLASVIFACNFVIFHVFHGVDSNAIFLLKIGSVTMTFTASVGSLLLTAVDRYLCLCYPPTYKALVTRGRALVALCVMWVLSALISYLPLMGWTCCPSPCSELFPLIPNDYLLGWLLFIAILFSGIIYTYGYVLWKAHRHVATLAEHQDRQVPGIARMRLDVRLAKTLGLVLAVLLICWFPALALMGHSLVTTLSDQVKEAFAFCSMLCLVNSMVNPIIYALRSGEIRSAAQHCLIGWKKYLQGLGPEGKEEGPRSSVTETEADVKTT
Description: as §1, §2
as §3, with “values. […]” for “values.”

[1] = tested on: paw-withdrawal latency to radiant heat in male Sprague-Dawley rats; assay: Cannabinoid mediated antinociception: paw-withdrawal latency to a thermal nociceptive stimulus (Hargreaves method); type: in vivo; conditions: rat, subcutaneous injection in plantar surface of hindpaw, in DMSO, 50 μl; FIGS. 1–13
Description: Cannabinoid Mediated Antinociception.
Method. Male Sprague-Dawley rats (Harlan; Indianapolis, Ind.) 200–300 grams at time of testing, were maintained in a climate-controlled room on a 12-h light/dark cycle (lights on at 06:00 h) and food and water were available ad libitum. All of the testing was performed in accordance with the policies and recommendations of the International Association for the Study of Pain (IASP) and the National Institutes of Health (NIH) guidelines for the handling and use of laboratory animals and received approval from the Institutional Animal Care and Use Committee (IACUC) of the University of Arizona.
All drugs were dissolved in dimethyl sulfoxide (DMSO) and were injected subcutaneously in the plantar surface of the hindpaw in a total volume of 50 μl. DMSO given in hindpaw at this volume had no effect. The method of Hargreaves, K.; Dubner, R.; Brown, F.; Flores, C.; and Joris, J., A New Sensitive Method for Measuring Thermal Nociception in Cutaneous Hyperalgesia. […] Paw-withdrawal latency was determined by a photocell that halted both lamp and timer when the paw was withdrawn. The latency to withdrawal of the paw from the radiant heat source was determined both before and after drug or vehicle administration. […]

SMILES: CCCCCCC(C)(C)c1cc(O)c2c(c1)oc(=O)c1ccc(OC)cc12 [AM1710, 3-(1,1-Dimethylheptyl)-1-hydroxy-9-methoxy-6H-dibenzo[b,d]pyran-6-one]
- CB2 selectivity over CB1 (CB1 receptor): ~750 fold
- Ki (CB2 receptor): 490 pM

SMILES: CCCCCCC(C)(C)c1cc(O)c2c(c1)oc(=O)c1ccc(O)cc12 [AM1714, 3-(1,1-Dimethylheptyl)-1,9-dihydroxy-6H-dibenzo[b,d]pyran-6-one]
- physiological effects in test animals including analgesia [1]: produced notable physiological effects in test animals including analgesia
